Results on 14 molecules are retold here after publication PMC9537541, “Synthesis and anticancer activity of new benzensulfonamides incorporating s-triazines as cyclic linkers for inhibition of carbonic anhydrase IX” (Scientific Reports, 2022).

pKi: −log10 of the molar value. Where a name gives a salt, the structure may show the parent alone.

For data set [1], the target named is T1, hCA I (Homo sapiens, UniProt P00915).
T1 construct: made in house
The data set is described as follows: stopped-flow CO2 hydrase assay, hCA I. Format: biochemical. Conditions: stopped flow technique, mean from 3 different assays. As to the method:
(§1) Target compounds of series (A) and (B) were screened as inhibitors concerning the physiologically relevant hCAs; cytosolic isoforms (hCA I and II) in addition to the transmembrane tumor related isoforms (hCA IX and XII) via a stopped-flow assay of carbonic anhydrase catalyzed CO2 hydration. Acetazolamide (AAZ), CA I drug, was also incorporated in the assays as a standard drug. […] Four CA isoforms inhibition activity was measured by assaying CA catalyzed CO2 hydration via an applied photophysics stopped-flow instrument. PRISM 3 and the Cheng-prusoff equation were used to determine the inhibition constant by non-linear least square methods as reported, and represent the mean from three different determination at least. All tested carbonic anhydrase isoforms were recombinant proteins prepared in lab as described earlier,[57].

The target of data set [2] is T2, hCA II (Homo sapiens, UniProt P00918).
T2 construct: made in house
The data set is described as follows: stopped-flow CO2 hydrase assay, hCA II. Type of data set: biochemical. Conditions: stopped flow technique, mean from 3 different assays. As to the method:
as §1

The target in data set [3] is T3, hCA IX (Homo sapiens, UniProt Q16790).
T3 construct: made in house
The data set is described as follows: stopped-flow CO2 hydrase assay, hCA IX. Type of data set: biochemical. Conditions: for pKi: stopped flow technique, mean from 3 different assays; for Selectivity index (SI) I/IX: hCA IX over off-target hCA I; for Selectivity index (SI) II/IX: hCA IX over off-target hCA II. As to the method: as §1

Data set [4] has as its target T4, hCA XII (Homo sapiens, UniProt O43570).
T4 construct: made in house
Kind of data set: stopped-flow CO2 hydrase assay, hCA XII. Type of data set: biochemical. The settings on record: for pKi: stopped flow technique, mean from 3 different assays; for Selectivity index (SI) I/XII: hCA XII over off-target hCA I; for Selectivity index (SI) II/XII: hCA XII over off-target hCA II. How it is done:
as §1

Data set [5] concerns CNS cancer (SNB-75). Kind of data set: NCI single dose SRB screen, SNB-75. Format: cell-based. Conditions: Homo sapiens, SNB-75, 48 h, 10^−5 M single dose, read-out: GI% CNS cancer (SNB-75). How it is done:
(§2) Target compounds in series (A) and (B), were submitted to the National Cancer Institute (NCI) Developmental Therapeutic Program (www.dtp.nci.nih.gov), where they have been assessed, in vitro for their anticancer activity. Two series (A) and (B), were screened in a single dose (10 µM) versus full panel composed of 60 cancer cell lines, in accordance with protocol of drug evaluation branch, NCI, Bethesda. Sulforhodamine B (SRB) colorimetric assay was used to determine cell growth and viability,[40].
(§3) Protocol of Drug Evaluation Branch, NCI, Bethesda, was adopted in the antitumor assay. Assessment of cell growth and viability was carried out utilizing SRB assay and 48 h drug exposure protocol as previously reported,[40].

Data set [6] relates to Renal cancer (UO-31). Kind of data set: NCI single dose SRB screen, UO-31. Type of data set: cell-based. Conditions: Homo sapiens, UO-31, 48 h, 10^−5 M single dose, read-out: GI% Renal cancer (UO-31). As to the method: as §2, §3
The test system of data set [7] is Breast cancer (MDA-MB-468). Kind of data set: NCI single dose SRB screen, MDA-MB-468. Format: cell-based. The settings on record: Homo sapiens, MDA-MB-468, 48 h, 10^−5 M single dose, 48 h, SRB; read-out: GI% Breast cancer (MDA-MB-468). How it is done:
as §2, §3

In data set [8] the test system is Leukemia (SR). The data set is described as follows: NCI single dose SRB screen, SR. Type of data set: cell-based. The settings on record: 48 h, 10^−5 M single dose, read-out: GI% Leukemia (SR). As to the method: as §2, §3

T4 sequence (O43570 25-354): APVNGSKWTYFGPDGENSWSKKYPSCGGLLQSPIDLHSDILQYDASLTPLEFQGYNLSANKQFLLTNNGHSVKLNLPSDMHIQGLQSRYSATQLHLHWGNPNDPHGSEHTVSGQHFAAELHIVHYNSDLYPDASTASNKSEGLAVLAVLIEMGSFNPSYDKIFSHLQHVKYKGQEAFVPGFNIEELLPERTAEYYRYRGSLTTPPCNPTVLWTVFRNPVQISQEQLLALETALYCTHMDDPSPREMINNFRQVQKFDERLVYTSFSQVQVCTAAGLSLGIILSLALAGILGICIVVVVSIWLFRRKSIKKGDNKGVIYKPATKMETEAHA
T1 sequence (P00915 whole entry): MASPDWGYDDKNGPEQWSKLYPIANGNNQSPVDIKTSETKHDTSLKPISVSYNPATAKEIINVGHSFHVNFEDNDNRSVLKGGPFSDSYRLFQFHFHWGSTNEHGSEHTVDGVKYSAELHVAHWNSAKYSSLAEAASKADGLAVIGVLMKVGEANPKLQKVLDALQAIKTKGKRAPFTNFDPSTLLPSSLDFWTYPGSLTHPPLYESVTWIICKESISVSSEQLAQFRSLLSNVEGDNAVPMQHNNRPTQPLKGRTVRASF

`NC1=NC2(CCCC2)N(c2ccc(S(=O)(=O)Nc3nccs3)cc2)C(N)=N1` (as salt: HCl) [Compound 6h, 4-{7,9-Diamino-6,8,10-triazaspiro[4.5]deca-7,9-dien-6-yl}-N-(1,3-thiazol-2-yl)benzene-1-sulfonamide.HCl]: the melting point is 216 to 218 °C.
As to `CC1CCC2(CC1)N=C(N)N=C(N)N2c1ccc(S(=O)(=O)Nc2ccccn2)cc1` (stereo not drawn) [Compound 6f., 4-(2,4-Diamino-9-methyl-1,3,5-triazaspiro[5.5]undeca-2,4-dien-1-yl)-N-(pyridin-2-yl)benzene-1-sulfonamide.HCl], the pKi in data set [1], in data set [2], in data set [3] and in [4] was less than 5.00 in each case. The inhibition at 10 µM in data set [5] is 23%; in [6], 11%; in data set [7], no more than 10%; in [8], no more than 10%.
`NC1=NC2(CCCCC2)N(c2ccc(S(=O)(=O)Nc3ccccn3)cc2)C(N)=N1` [Compound 6e, 4-(2,4-Diamino-1,3,5-triazaspiro[5.5]undeca-2,4-dien-1-yl)-N-(pyridin-2-yl)benzene-1-sulfonamide.HCl]: the pKi in [1], in [2], in [3] and in data set [4] was less than 5.00 each time. The inhibition at 10 µM in data set [5] was no more than 10%; in data set [6], 11%; in [7], no more than 10%; in [8] it was no more than 10%.
For `CC1(C)N=C(N)N=C(N)N1c1ccc(S(=O)(=O)Nc2nccs2)cc1` (as salt: HCl) [Compound 5c, 4-(4,6-Diamino-2,2-dimethyl-1,2-dihydro-1,3,5-triazin-1-yl)-N-(thiazol-2-yl)benzene-1-sulfonamide.HCl], the melting point lay in the range of 216 to 218 °C.
On to `NC1=NC2(CCCCC2)N(c2ccc(S(=O)(=O)Nc3nccs3)cc2)C(N)=N1` [Compound 6i, 4-(2,4-Diamino-1,3,5-triazaspiro[5.5]undeca-2,4-dien-1-yl)-N-(1,3-thiazol-2-yl)benzene-1-sulfonamide.HCl], for which the pKi in [1], in data set [2], in data set [3] and in [4] was less than 5.00 throughout. The inhibition at 10 µM in [5] was no more than 10%; in data set [6] it was 14%; in data set [7], no more than 10%; in data set [8], no more than 10%.
For `CC1(C)N=C(N)N=C(N)N1c1ccc(S(=O)(=O)Nc2nccs2)cc1` [Compound 5c, 4-(4,6-Diamino-2,2-dimethyl-1,2-dihydro-1,3,5-triazin-1-yl)-N-(thiazol-2-yl)benzene-1-sulfonamide.HCl], the pKi in [1], in [2], in data set [3] and in data set [4] was less than 5.00 each time. The inhibition at 10 µM was 35% in data set [5], 11% in data set [6], no more than 10% in [7] and no more than 10% in [8].
Regarding `CC1(C)N=C(N)N=C(N)N1c1ccc(S(N)(=O)=O)cc1` [Compound 5a, 4-(4,6-Diamino-1-phenyl-1,2-dihydro-2,2-dimethyl-1,3,5-triazin-1-yl) benzene-1-sulfonamide HCl], the pKi was 6.05 in [1], 6.04 in data set [2], 6.87 in [3] and 5.45 in [4]. Besides, the “Selectivity index (SI) I/IX” value in data set [3] was 6.7. Also, the “Selectivity index (SI) II/IX” value in data set [3] is 6.8. In [4], the “Selectivity index (SI) I/XII” value worked out at 0.3. Besides, the “Selectivity index (SI) II/XII” value in data set [4] is given as 0.2. Further, the inhibition at 10 µM is 29% in data set [5], no more than 10% in data set [6], no more than 10% in data set [7] and no more than 10% in data set [8].
Turning to `CC1CCC2(CC1)N=C(N)N=C(N)N2c1ccc(S(N)(=O)=O)cc1` (stereo not drawn) [Compound 6c, 4-(2,4-Diamino-9-methyl-1,3,5-triazaspiro[5.5]undeca-2,4-dien-1-yl)benzene-1-sulfonamide.HCl], the pKi in data set [1] is 6.84; in data set [2], 6.75; in [3], 5.73; in data set [4] it was 5.31. Besides, the “Selectivity index (SI) I/IX” value in [3] worked out at 0.1. The “Selectivity index (SI) II/IX” value in data set [3] is 0.1. The “Selectivity index (SI) I/XII” value in [4] was 0.02. Also, the “Selectivity index (SI) II/XII” value in [4] was determined as 0.04. Further, the inhibition at 10 µM in data set [5] is 21%; in data set [6], 16%; in data set [7], no more than 10%; in data set [8] it was no more than 10%.
With `NC1=NC2(CCCC2)N(c2ccc(S(=O)(=O)Nc3ccccn3)cc2)C(N)=N1` [Compound 6d, 4-(7,9-Diamino-6,8,10-triazaspiro[4.5]deca-7,9-dien-6-yl}-N-(pyridin-2-yl)benzene-1-sulfonamide.HCl], the pKi in [1], in data set [2], in data set [3] and in [4] was less than 5.00 in each case. Moreover, the inhibition at 10 µM in data set [5] was 30%; in data set [6], 12%; in data set [7], no more than 10%; in data set [8] it was no more than 10%.
As to `NC1=NC2(CCCC2)N(c2ccc(S(N)(=O)=O)cc2)C(N)=N1` [Compound 6a, 4-(7,9-Diamino-6,8,10-triazaspiro[4.5]deca-7,9-dien-6-yl) benzene-1-sulfonamide HCl], the pKi in data set [1] was 6.20; in [2] it was 6.08; in data set [3], 5.98; in data set [4] it was 5.27. The “Selectivity index (SI) I/IX” value in data set [3] is given as 0.6. In addition, the “Selectivity index (SI) II/IX” value in [3] came to 0.8. Besides, the “Selectivity index (SI) I/XII” value in data set [4] amounted to 0.1. Moreover, the “Selectivity index (SI) II/XII” value in [4] is 0.2. Also, the inhibition at 10 µM was no more than 10% in data set [5], 19% in data set [6], 18% in data set [7] and 13% in [8].
With `NC1=NC2(CCCCCC2)N(c2ccc(S(=O)(=O)Nc3ccccn3)cc2)C(N)=N1` [Compound 6g, 4-(2,4-Diamino-1,3,5-triazaspiro[5.6]dodeca-2,4-dien-1-yl)-N-(pyridin-2-yl)benzene-1-sulfonamide.HCl], the pKi in data set [1], in data set [2], in data set [3] and in data set [4] was less than 5.00 throughout. Further, the inhibition at 10 µM is 33% in data set [5], 14% in [6], no more than 10% in data set [7] and no more than 10% in data set [8].
Turning to `CC1CCC2(CC1)N=C(N)N=C(N)N2c1ccc(S(=O)(=O)Nc2nccs2)cc1` (stereo not drawn) [Compound 6j, 4-(2,4-Diamino-9-methyl-1,3,5-triazaspiro[5.5]undeca-2,4-dien-1-yl)-N-(1,3-thiazol-2-yl)benzene-1-sulfonamide.HCl], the pKi in [1], in [2], in data set [3] and in data set [4] was less than 5.00 in each case. Moreover, the inhibition at 10 µM in data set [5] is 29%; in data set [6] it was 17%; in data set [7], no more than 10%; in data set [8], no more than 10%.
For `NC1=NC2(CCCC2)N(c2ccc(S(=O)(=O)Nc3nccs3)cc2)C(N)=N1` [Compound 6h, 4-{7,9-Diamino-6,8,10-triazaspiro[4.5]deca-7,9-dien-6-yl}-N-(1,3-thiazol-2-yl)benzene-1-sulfonamide.HCl], the pKi in data set [1], in [2], in data set [3] and in [4] was less than 5.00 throughout. For the same molecule, the inhibition at 10 µM in [5] was no more than 10%; in data set [6], 17%; in data set [7] it was no more than 10%; in data set [8] it was no more than 10%.
Take `NC1=NC2(CCCCC2)N(c2ccc(S(N)(=O)=O)cc2)C(N)=N1` [Compound 6b, 4-(2,4-Diamino-1,3,5-triazaspiro[5.5]undeca-2,4-dien-1-yl)benzene-1-sulfonamide.HCl]: the negative-log Ki (pKi) in data set [1] is 6.36; in data set [2], 6.04; in [3] it was 5.93; in [4], 5.31. In addition, in data set [3], the “Selectivity index (SI) I/IX” value is listed as 0.4. For the same molecule, the “Selectivity index (SI) II/IX” value in data set [3] stood at 0.8. For the same molecule, the “Selectivity index (SI) I/XII” value in data set [4] is given as 0.1. Further, the “Selectivity index (SI) II/XII” value in data set [4] came to 0.2. Moreover, the inhibition at 10 µM in data set [5] was 28%; in [6] it was no more than 10%; in [7] it was no more than 10%; in data set [8], no more than 10%.

What is called melting point is the temperature, or range, at which the solid turns liquid. What is called pKi is −log10 of the Ki, conventionally taken in molar units.
